Test results as given in paper PMC7997579, “Synthetic Lethality in Pancreatic Cancer: Discovery of a New RAD51-BRCA2 Small Molecule Disruptor That Inhibits Homologous Recombination and Synergizes with Olaparib” (Journal of Medicinal Chemistry, 2020).
Like-named read-outs stand apart in the source and are kept apart here.

How the values were obtained:
BRC4–RAD51 interaction = molecular target: T1, BRC4–RAD51 interaction (Homo sapiens, UniProt Q06609); experiment: Competitive biochemical ELISA assay (biotinylated BRC4 peptide vs RAD51); assay type: binding
T1 construct: purchased Creative Biomart (RAD51); Life Technologies (BRC4 peptide)
T1 sequence (Q06609 1-339): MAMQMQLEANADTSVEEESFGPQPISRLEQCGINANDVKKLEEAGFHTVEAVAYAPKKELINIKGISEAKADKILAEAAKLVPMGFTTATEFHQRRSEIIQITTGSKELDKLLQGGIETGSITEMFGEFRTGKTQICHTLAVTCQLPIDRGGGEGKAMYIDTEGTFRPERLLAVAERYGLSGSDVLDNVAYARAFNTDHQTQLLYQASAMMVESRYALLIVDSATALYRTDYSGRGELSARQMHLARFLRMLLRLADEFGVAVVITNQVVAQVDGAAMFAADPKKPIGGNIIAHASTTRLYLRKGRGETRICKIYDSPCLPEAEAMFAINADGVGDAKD
Procedure: To investigate the mechanism of action of the new dihydroquinolone pyrazoline derivatives, different biological assays were performed. As a primary screening, the ability of compounds 5d–57d to inhibit RAD51-BRCA2 interaction was investigated with a competitive biochemical ELISA assay against the parent compound 4d (Table 1). This assay is effective in evaluating the ability of new molecules to compete with BRC4 to bind to RAD51.[30] […] 18d–21d, 23d, 25d, 30d, and 31d were active at micromolar range, all very similar to the initial hit. […] The replacement of the aromatic ring A in combination with the substitution of the pyrazoline nitrogen with either propionyl or acetyl chain yielded compounds 33d–51d. […] As expected for PPI disruptors, the SARs of the new series of dihydroquinolone pyrazoline were rather complex to rationalize, with many cliffs and spikes that were difficult to understand. […] Accordingly, 4d, 12d, 18d, 20d–23d, 30d, 31d, 33d–36d, 39d, 45d, and 49d were submitted to cell-based study (Table 2).
Competitive ELISA screening assay using biotinylated BRC4 peptide to disrupt the BRC4–RAD51 interaction was performed by modifying the method described by Rajendra et al.[33] BRC4-biotinylated peptide (N-term biotin-[…] from Life Technologies) was used to coat 384-well plates (Nunc). After washing with PBS containing 0.05% Tween-20 (PBST) and blocking with the solution BSA 1% /PBST, overnight hybridization with human RAD51 protein (NP_002866 Creative Biomart, NY) was performed. Test compounds were added in dose response from 0.01 to 100 μM in triplicate with constant DMSO 1%. Antibody raised against RAD51 (Millipore) and HRP-secondary antibody staining to develop the 3,3′,5,5′-tetramethylbenzidine signal (Sigma) quenched with 1 M HCl was used as the assay readout. Colorimetric measure was read on a Victor5 (PerkinElmer) plate reader. BRC4 and Rad51 were included in the assay as positive control. Results were analyzed by using GraphPad software.

[1] = test system: homologous recombination in BxPC3 cells; experiment: Homologous recombination assay (two-plasmid recombination, real-time PCR); assay type: cell-based, human; settings: BxPC3; one or two doses in the range of the ELISA EC50; NDD = not dose-dependent
From the text: (§1) Our working hypothesis is that compounds disrupting RAD51-BRCA2 interaction should affect HR repair and increase the efficacy of PARPi in treating breast, ovarian, and pancreatic cancer. For its clinical relevance, pancreatic adenocarcinoma was selected as our final model for cell-based experiments, and BxPC3 cells were selected for a straightforward comparison with the previously reported triazole derivatives.[30],[31] BxPC3 is derived from a human adenocarcinoma that expresses fully functional BRCA2.[38] As shown in Table 2 and according to the rationale of our hypothesis, our preliminary screening consisted of verifying the efficacy of compounds in inhibiting cell HR and/or in increasing the antiproliferative effect of olaparib. […] HR activity was assessed by evaluating the recombination rate between two transfected plasmids, using a commercially available assay. […] As for the emissucinic acid-containing compounds (4d, 12d, 18d, 20d–23d, 30d, 31d), one of the reasons for their lower potency in cells might be the general poor permeability, likely related to the ionizable acid moiety. […] We then characterized 35d in additional biophysical and cell-based experiments.
Homologous recombination (HR) was assessed by using a commercially available assay (Norgen). This assay is based on cell transfection with two plasmids that, upon cell entry, recombine. The efficiency of HR can be assessed by real-time PCR, using primer mixtures included in the assay kit. Different primer mixtures allow one to discriminate between the original plasmid backbones and their recombination product.
BxPC3 cells (2 × 10^5 per well) were seeded in a 24-well plate and allowed to adhere overnight. Co-transfection with the two plasmids was performed in Lipofectamine 2000 (Invitrogen) according to the manufacturer’s instructions. During transfection (5 h), cells were exposed to different doses of RAD51-BRCA2 disruptors, dissolved in RPMI in the presence of 0.6% DMSO. After washing with PBS, cells were harvested, and DNA was isolated using Illustra Tissue and Cell Genomic Prep Mini Spin kit (GE Healthcare). Sample concentration was measured using an ONDA Nano Genius photometer. The efficiency of HR was assessed by real-time PCR, using 25 ng of template, the primer mixtures included in the assay kit and following the protocol indicated by the manufacturer. Data analysis was based on the ΔΔCt method: [recombination product/backbone plasmids]^treated versus [recombination product/backbone plasmids]^control.

BxPC3 cells = experiment: Cell viability assay (CellTiter-Glo), association with olaparib; assay type: cell-based, human; settings: BxPC3; for olaparib association (increase of antiproliferative effect of olaparib): one or two doses in the range of the ELISA EC50, concentration not given
From the text: as §1
Cell viability was assessed with the CellTiter-Glo luminescent cell viability assay from Promega. For this experiment, 1 × 10^4 cells in 200 μL of culture medium were seeded into each well of a 96-multiwell white body plate and allowed to adhere overnight. After 72 h incubation in the presence of olaparib (10 μM) and the RAD51-BRCA2 disruptors alone or in combination, the plate was allowed to equilibrate at room temperature for 30 min and the CellTiter-Glo reactive was directly added to each well. The plate was kept on a shaker for 10 min to induce cell lysis, and its luminescence was measured with a Fluoroskan Ascent FL reader (Labsystems).

[2] = Table 2, compounds selected for cell-based study, read-out: EC50 ELISA
[3] = competition with BRC4 for RAD51, triplicate, ± standard deviation, NA = not active, racemic mixtures unless enantiomer named, read-out: EC50 (μM) on ELISA assay

In the case of O=C(O)CCC(=O)N1N=C(c2c(-c3ccccc3)c3cc(Cl)ccc3[nH]c2=O)CC1c1ccc(Br)cc1 (stereo not shown) [Compound 12d, 4-(5-(4-Bromophenyl)-3-(6-chloro-2-oxo-4-phenyl-1,2-dihydroquinolin-3-yl)-4,5-dihydro-1H-pyrazol-1-yl)-4-oxobutanoic Acid], the EC50 (BRC4–RAD51 interaction; [2]) is reported as 16 ± 2 µM, the EC50 (BRC4–RAD51 interaction; [3]) is reported as 16 ± 2 µM and the “HR inhibition (in words)” value [1] is reported as “HR inhibition = not present”. The “olaparib association (increase of antiproliferative effect of olaparib)” value (BxPC3 cells) was “olaparib association = not present”.
For O=C(O)CCC(=O)N1N=C(c2c(-c3ccccc3)c3cc(Cl)ccc3[nH]c2=O)CC1c1ccc(-c2ccc(F)cc2)cc1 (stereo not shown) [Compound 18d, 4-(3-(6-Chloro-2-oxo-4-phenyl-1,2-dihydroquinolin-3-yl)-5-(4′-fluoro-[1,1′-biphenyl]-4-yl)-4,5-dihydro-1H-pyrazol-1-yl)-4-oxobutanoic Acid], the EC50 (BRC4–RAD51 interaction; [2]) was 13 ± 1 µM, the EC50 (BRC4–RAD51 interaction; [3]) was 13 ± 1 µM and the “olaparib association (increase of antiproliferative effect of olaparib)” value (BxPC3 cells) was “olaparib association = not present”.
O=C(O)CCC(=O)N1N=C(c2c(-c3ccccc3)c3cc(Cl)ccc3[nH]c2=O)CC1c1ccc(-c2ccc(Br)cc2)cc1 (stereo not shown) [Compound 20d] was tested, and the EC50 (BRC4–RAD51 interaction; [2]) was 20 ± 2 µM, the EC50 (BRC4–RAD51 interaction; [3]) was 20 ± 2 µM and the “olaparib association (increase of antiproliferative effect of olaparib)” value (BxPC3 cells) was “olaparib association = not present”.
For Cn1ccc2cc(C3CC(c4c(-c5ccccc5)c5cc(Cl)ccc5[nH]c4=O)=NN3C(=O)CCC(=O)O)ccc21 (stereo not shown) [Compound 22d, 4-(3-(6-Chloro-2-oxo-4-phenyl-1,2-dihydroquinolin-3-yl)-5-(1-methyl-1H-indol-5-yl)-4,5-dihydro-1H-pyrazol-1-yl)-4-oxobutanoic Acid], the EC50 (BRC4–RAD51 interaction; [2]) was 2 ± 0.5 µM, the EC50 (BRC4–RAD51 interaction; [3]) was 2 ± 0.5 µM and the “HR inhibition (in words)” value [1] was “HR inhibition = not present”. For the same molecule, the olaparib association (BxPC3 cells; at 5 μM) was “olaparib association = not present at 5 μM”.
In the case of CCn1ccc2cc(C3CC(c4c(-c5ccccc5)c5cc(Cl)ccc5[nH]c4=O)=NN3C(=O)CCC(=O)O)ccc21 (stereo not shown) [Compound 23d, 4-(3-(6-Chloro-2-oxo-4-phenyl-1,2-dihydroquinolin-3-yl)-5-(1-ethyl-1H-indol-5-yl)-4,5-dihydro-1H-pyrazol-1-yl)-4-oxobutanoic Acid], the EC50 (BRC4–RAD51 interaction; [2]) is reported as 10 ± 2 µM, the EC50 (BRC4–RAD51 interaction; [3]) is reported as 10 ± 2 µM and the “olaparib association (increase of antiproliferative effect of olaparib)” value (BxPC3 cells) is reported as “olaparib association = not present”.
In the case of CCn1cc2cc(-c3ccc(C4CC(c5c(-c6ccccc6)c6cc(Cl)ccc6[nH]c5=O)=NN4C(=O)CCC(=O)O)cc3)ccc2n1 (stereo not shown) [Compound 31d, 4-(3-(6-Chloro-2-oxo-4-phenyl-1,2-dihydroquinolin-3-yl)-5-(4-(2-ethyl-2H-indazol-5-yl)phenyl)-4,5-dihydro-1H-pyrazol-1-yl)-4-oxobutanoic Acid], the EC50 (BRC4–RAD51 interaction; [2]) is reported as 17 ± 4 µM, the EC50 (BRC4–RAD51 interaction; [3]) is reported as 17 ± 4 µM and the “HR inhibition (in words)” value [1] is reported as “HR inhibition = NDD ^b”. The olaparib association (BxPC3 cells; at 20 μM) was “olaparib association = present at 20 μM”.
In the case of CCC(=O)N1N=C(c2c(-c3ccccc3)c3cc(Cl)ccc3[nH]c2=O)CC1c1ccc(Cl)cc1 (stereo not shown) [Compound 33d, 6-Chloro-3-(5-(4-chlorophenyl)-1-propionyl-4,5-dihydro-1H-pyrazol-3-yl)-4-phenylquinolin-2(1H)-one], the EC50 (BRC4–RAD51 interaction; [2]) is reported as 8 ± 2 µM, the EC50 (BRC4–RAD51 interaction; [3]) is reported as 8 ± 2 µM and the “HR inhibition (in words)” value [1] is reported as “HR inhibition = not present”. The “olaparib association (increase of antiproliferative effect of olaparib)” value (BxPC3 cells) was “olaparib association = not present”.
For CC(=O)N1N=C(c2c(-c3ccccc3)c3cc(Cl)ccc3[nH]c2=O)CC1c1ccc(C(C)(C)C)cc1 (stereo not shown) [Compound 39d, 3-(1-Acetyl-5-(4-(tert-butyl)phenyl)-4,5-dihydro-1H-pyrazol-3-yl)-6-chloro-4-phenylquinolin-2(1H)-one], the EC50 (BRC4–RAD51 interaction; [2]) was 15 ± 4 µM, the EC50 (BRC4–RAD51 interaction; [3]) was 15 ± 4 µM and the “HR inhibition (in words)” value [1] was “HR inhibition = NDD ^b”.
With CC(=O)N1N=C(c2c(-c3ccccc3)c3cc(Cl)ccc3[nH]c2=O)CC1c1ccc2c(ccn2C)c1 (stereo not shown) [Compound 45d, 3-(1-Acetyl-5-(1-methyl-1H-indol-5-yl)-4,5-dihydro-1H-pyrazol-3-yl)-6-chloro-4-phenylquinolin-2(1H)-one] the EC50 (BRC4–RAD51 interaction; [2]) was 18 ± 1 µM, the EC50 (BRC4–RAD51 interaction; [3]) was 18 ± 1 µM and the “HR inhibition (in words)” value [1] was “HR inhibition = not present”.
